In patent publication US6730780B2, “Water-based ink” (Kao Corporation, priority 2000, dated 2004):
Each block holds one compound with its values, some of them ahead of it.

How the values were obtained:
Assay type in all cases: physicochemical
[1] = Water resistance of printed matter (OD residual ratio); settings: ink containing the dye; printed matter soaked in purified water at 25° C. for 10 minutes
Source text: (§1) There were mixed together 8 parts by weight of a coloring material-containing emulsion obtained in the above item (2) or a 30% aqueous solution of a dye obtained in any one of Reference Examples 1 to 5, 10 parts by weight of trimethylglycine, 5 parts by weight of urea, 1 part by weight of sodium 2-ethylhexylsulfosuccinate and 76 parts by weight of purified water, to give an ink.
(§2) An inkjet printer cartridge (commercially available from CANON INC. under the trade name of BCI-21e) was charged with an ink, and the inkjet printer cartridge was loaded on a bubble jet printer (commercially available from CANON INC. under the model number of BJC430J). Printing was carried out on plain paper (commercially available from CANON INC. under the trade name of The Plain Paper for Inkjet Printing PB Paper) and on high-resolution coated paper (commercially available from CANON INC. under the trade name of (The High Resolution Coated Paper HR-101), and sufficiently dried. Thereafter, the following physical properties of the printed paper were evaluated. The results are shown in Table 2.
(2) Water Resistance
The printed matter on a paper sheet for plain paper copy was soaked in purified water at 25° C. for 10 minutes, and thereafter water was sufficiently removed to be air-dried. The optical density (hereinafter referred to as OD) of the same site before and after soaking was determined by using an optical density analyzer [commercially available from Macbeth Process Measurements Co., umder the trade name of reflection densitometer RD-914]. Its OD residual ratio was obtained in accordance with the following equation: [formula]

[2] = Storage stability of ink (retention ratio of physical properties); settings: ink containing the dye, stored at 60° C. for 3 months; for Retention Ratio of Physical Properties After Storage (%) Surface Tension: surface tension at 25° C.; for Retention Ratio of Physical Properties After Storage (%) Viscosity: viscosity at 25° C.
Protocol: In 10 g of toluene was dissolved 0.6 g of each dye obtained in Preparation Examples 1 to 5 or Reference Example 6 or 7, and 1.4 g of the vinyl polymer solution obtained in the above item (1) was added to the resulting mixed solution, and the mixture was sufficiently stirred to dissolve the dye.
Next, 5.21 g of a 1 N aqueous potassium hydroxide and 50 g of purified water were added to the resulting solution, and the mixture was further sufficiently stirred. After stirring, the mixture was emulsified with an ultrasonic homogenizer at 400 μA for 20 minutes. Thereafter, toluene was removed with heating under reduced pressure, and the resulting mixture was filtered with a 0.8 μm filter, to give a coloring material-containing emulsion in which the dye was contained in the vinyl polymer.
as §1
A. Storage Stability of Ink
A 100 mL bottle made of a fluorocarbon resin was charged with an ink, and the bottle was stored in the air at 60° C. for 3 months. As the physical properties, particle sizes before and after storage (determined by a particle size distribution analyzer commercially available from OtsuKa Denshi K.K. under the trade name of ELS-8000), viscosity (determined at 25° C. by a viscometer commercially available from Toki Sangyo K.K. under the trade name of VISCOMETER ELS-80L) and surface tension (determined at 25° C. by a surface tension meter commercially available from Kyowa Kaimen Kagaku K.K. under the trade name of AUTOMATIC Surface Tensiometer CBVP-Z) were examined. The retention ratio in each physical property was obtained in accordance with the following equation: [formula]

[3] = Ozone resistance of printed matter; settings: ink containing the dye; printed matter exposed to 3 ppm ozone for 2 hours
Source text: as §1, §2
(4) Ozone Resistance
A printed matter on a paper sheet for plain paper copy was exposed in a gas stream having an ozone concentration of 3 ppm for 2 hours, and the color tone (L*a*b*) before and after exposure was determined by using a colorinmeter [commercially available from Nippon Denshoku Kogyo Kabushiki Kaisha under the trade name of SE2000], and indicated by ΔE.

[4] = Light fastness of printed matter (OD residual ratio); settings: ink containing the dye; printed matter irradiated at 10000 kJ/m^2, xenon fade meter
Source text: as §1, §2
(3) Light Fastness
A printed matter of the PB Paper (commercially available from CANON INC.) was irradiated at 10000 kJ/m^2 with a xenon fade meter (commercially available from Suga Shikenki K.K. under the trade name of Low-temperature cycle-xenon-long life-fade meter). The optical density (OD) of the same site before and after irradiation was determined by using the same optical density analyzer as above. Its OD residual ratio was obtained in accordance with the following equation: [formula]

[5] = Solvent solubility of dye; set-up: key: ◯: Dye not being dissolved; x: Dye being dissolved; settings: 20° C.
Protocol: Twenty parts by weight of a dye was added to 100 parts by weight of a solvent shown in Table 1, and whether or not the dye is dissolved in the solvent at 20° C. was observed. The evaluation was made on the basis of the following evaluation criteria:
x: Dye not being dissolved

[6] = Water resistance, alkali resistance and acid resistance of dye on plain paper; set-up: key: ◯: Dye not being dissolved; x: Dye being dissolved
Protocol: A. Water Resistance, Alkali Resistance and Acid Resistance
In 10 ml of tetrahydrofuran was dissolved 0.1 g of a dye. A paper sheet for plain paper copy [commercially available from XEROX CO., LTD. under the trade name of XEROX 4024] was immersed in the solution for 10 minutes, and thereafter taken out therefrom to be air-dried at 25° C. for 24 hours. After drying, the paper was immersed in water (water resistance), a 1 N-aqueous sodium bydroxide (alkali resistance), or a 1 N-aqueous hydrochloric acid (acid resistance) for 10 minutes to examine whether or not the dye is dissolved in each solvent. The evaluation was made on the basis of the following evaluation criteria:
◯: Dye not being dissolved

Water Resistance [OD Residual Ratio (%)] [1]: 100% | Retention Ratio of Physical Properties After Storage (%) Particle Size [2]: 98.4% | Retention Ratio of Physical Properties After Storage (%) Surface Tension [2]: 97.3% | Retention Ratio of Physical Properties After Storage (%) Viscosity [2]: 95% | Ozone Resistance (ΔE) [3]: 0 | Light Fastness [OD Residual Ratio (%)] [4]: 98%
Compound: CCCCN(CCCC)C(=O)C1=NN(c2ccc(S(=O)(=O)N(CCCC)CCCC)cc2)C(=O)C1N=Nc1ccc(S(=O)(=O)N(CCCC)CCCC)cc1 (centres unmarked) [Oil-Soluble Dye IB]

Water Resistance [OD Residual Ratio (%)] [1]: 100% | Retention Ratio of Physical Properties After Storage (%) Particle Size [2]: 99.4% | Retention Ratio of Physical Properties After Storage (%) Surface Tension [2]: 98.5% | Retention Ratio of Physical Properties After Storage (%) Viscosity [2]: 100% | Ozone Resistance (ΔE) [3]: 0 | Light Fastness [OD Residual Ratio (%)] [4]: 100%
Compound: CCCCCCN(CCCCCC)S(=O)(=O)c1ccc(N=NC2C(=O)N(c3cc(Cl)c(S(=O)(=O)N(CCCCCC)CCCCCC)cc3Cl)N=C2C)cc1 (centres unmarked) [Oil-Soluble Dye IC]

Water Resistance [OD Residual Ratio (%)] [1]: 100% | Retention Ratio of Physical Properties After Storage (%) Particle Size [2]: 101.3% | Retention Ratio of Physical Properties After Storage (%) Surface Tension [2]: 97.0% | Retention Ratio of Physical Properties After Storage (%) Viscosity [2]: 96% | Ozone Resistance (ΔE) [3]: 0 | Light Fastness [OD Residual Ratio (%)] [4]: 94%
Compound: CCCCN(CCCC)S(=O)(=O)c1cccc(N=Nc2ccc(NC(=O)Nc3ccc(N=Nc4cccc(S(=O)(=O)N(CCCC)CCCC)c4)cc3OC)c(OC)c2)c1 [Oil-Soluble Dye ID]

The remaining lines, values behind:

Compound: C.I. Acid Red 289 [Dye a]
Water Resistance [OD Residual Ratio (%)] [1]: 84% | Retention Ratio of Physical Properties After Storage (%) Surface Tension [2]: 99.7% | Retention Ratio of Physical Properties After Storage (%) Viscosity [2]: 105% | Ozone Resistance (ΔE) [3]: 4 | Light Fastness [OD Residual Ratio (%)] [4]: 73%

Compound: C.I. Acid Yellow 17 [Dye c]
Water Resistance [OD Residual Ratio (%)] [1]: 42% | Retention Ratio of Physical Properties After Storage (%) Surface Tension [2]: 98.6% | Retention Ratio of Physical Properties After Storage (%) Viscosity [2]: 105% | Ozone Resistance (ΔE) [3]: 3 | Light Fastness [OD Residual Ratio (%)] [4]: 93%

Compound: C.I. Acid Yellow 23 [Dye b]
Water Resistance [OD Residual Ratio (%)] [1]: 40% | Retention Ratio of Physical Properties After Storage (%) Surface Tension [2]: 96.6% | Retention Ratio of Physical Properties After Storage (%) Viscosity [2]: 96% | Ozone Resistance (ΔE) [3]: 5 | Light Fastness [OD Residual Ratio (%)] [4]: 87%

Compound: C.I. Direct Yellow 86 [Dye d]
Water Resistance [OD Residual Ratio (%)] [1]: 56% | Retention Ratio of Physical Properties After Storage (%) Surface Tension [2]: 93.9% | Retention Ratio of Physical Properties After Storage (%) Viscosity [2]: 92% | Ozone Resistance (ΔE) [3]: 10 | Light Fastness [OD Residual Ratio (%)] [4]: 86%

Compound: C.I. Direct Yellow 132 [Dye e]
Water Resistance [OD Residual Ratio (%)] [1]: 35% | Retention Ratio of Physical Properties After Storage (%) Surface Tension [2]: 101.2% | Retention Ratio of Physical Properties After Storage (%) Viscosity [2]: 105% | Ozone Resistance (ΔE) [3]: 0 | Light Fastness [OD Residual Ratio (%)] [4]: 82%

Compound: C.I. Solvent Red 49 [Dye l]
Solvent Solubility 2-Butanone ([5]; 20 parts by weight dye in 100 parts by weight 2-butanone): ◯ | Solvent Solubility Ethanol ([5]; 20 parts by weight dye in 100 parts by weight ethanol): ◯ | Solvent Solubility Tetrahydrofuran ([5]; 20 parts by weight dye in 100 parts by weight tetrahydrofuran): ◯ | Solvent Solubility Toluene ([5]; 20 parts by weight dye in 100 parts by weight toluene): ◯ | Water Resistance [OD Residual Ratio (%)] [1]: 100% | Acid Resistance ([6]; dyed plain paper immersed in 1 N aqueous hydrochloric acid for 10 minutes): ◯ | Alkali Resistance ([6]; dyed plain paper immersed in 1 N aqueous sodium hydroxide for 10 minutes): ◯ | Water Resistance ([6]; dyed plain paper immersed in water for 10 minutes): ◯ | Retention Ratio of Physical Properties After Storage (%) Particle Size [2]: 93% | Retention Ratio of Physical Properties After Storage (%) Surface Tension [2]: 97.9% | Retention Ratio of Physical Properties After Storage (%) Viscosity [2]: 91% | Ozone Resistance (ΔE) [3]: 8 | Light Fastness [OD Residual Ratio (%)] [4]: 45%
